Columns and labels:
[1] = system: PC-3 orthotopic xenograft; assay: Orthotopic refractory prostate cancer model; type: in vivo, nude mice; settings: from 7th day post-graft
Procedure: (§1) Three types of results were obtained with in vivo anti-tumor pharmacology: 1) the cumulative toxicity of chemotherapeutic administrations through recording the weights of the tumor-bearing mice during treatment, 2) the actual anti-tumor effect exerted at tumor growth level. If the tumor models are grafted subcutaneously (s.c.), tumor size is measured three times a week by means of a caliper and expressed as an area (mm^2) by multiplying together the two largest perpendicular diameters, and 3) the gain in survival for the animals treated, which is evaluated by means of the T/C index. This index is the ratio between the median survival time of the group of treated animals (T) and that of the control group. The drug is considered to be active if the T/C value is above 130% (P<0.05), and toxic for a value lower than 70%.
In addition to the xenografted models of Example 6, the antitumoral activity of compound B was evaluated in orthotopic xenografted models PC3 (Prostate) and Capan2 (Pancreas).
Compound B was evaluated in vivo on highly invasive orthotopic PC-3 refractory prostate cancer model by measurement of T/C index, as described in Example 6 of the specification.

[2] = system: MCF-7-TD5 (breast cancer); assay: Sub-cutaneous xenograft breast cancer model; type: in vivo, mice
Procedure: as §1
The antitumoral activity of compound B was evaluated in different xenografted models: sub-cutanous model: MCF-7-TD5 (breast cancer) and C32 (melanoma cancer) and orthotopic model: A549 (lung cancer).
The MCF-7-TD5 model described herein is a […] form of MCF-7 transfected with v-Ha-ras oncogene and with a neomycin-resistance gene. Compound B was assayed at MTD/8 (10 mg/kg) and MTD/16 (5 mg/kg) five times a week.
After s.c. injection of MCF-7-TD5 into untreated female nu/nu mice, the MCF-7 TD5 produced tumors after latency periods of 7 to 18 weeks. […] No oestradiol was used during the experiments described in this example.

[3] = system: HCT-15 human cancer cells; assay: Cell cycle kinetics by flow cytometry (propidium iodide); type: cell-based; design: key to Effect on cell cycle kinetics, G0/G1 / Effect on cell cycle kinetics, S / Effect on cell cycle kinetics, G2/M: n.s. means no significant; ** means highly significant; *** very highly significant
Procedure: (§2) Cell lines were seeded in flasks (25 cm^2 area) containing 7 ml of culture medium. After 48 hours incubation at 37° C. the cell culture medium was replaced by a fresh medium in which the substance to be tested had been dissolved at the different concentrations required. Uscharin and 2″ oxo-voruscharin were tested at concentrations, which kill 50% and 30% of the cell population, represented by the IC50 and IC30 values, respectively. After 24 or 72 hours of treatment the cells were harvested in suspension, washed in Phosphate Buffer Saline (PBS) at 4° C. and permeabilized with 70% ethanol (at 4° C.) overnight at −20° C. The cells were then washed with PBS and incubated with propidium iodide solution (80 μg/ml) for 30 minutes at 37° C. and afterward at 4° C. overnight. Ribonuclease A (3% V/V) was added to the PI solution to break doubled-stranded RNA. The portrait of the cell cycle was established for each sample. Software incorporated into the flow cytometer was used to define precisely the percentage of cells in the different cell cycle phases. Each cell cycle phase was reported in terms of peak surface and calculated as a percentage. The surface of the entire cell cycle was 100%. Each experiment was carried out 3 times. The mean percentage of each different phase and the standard error of the related mean were calculated. Each cell cycle phase of a given condition was compared with the same cell cycle phase of control. The non-treated cells constituted control.
(§3) Uscharin and 2″ oxo-voruscharin are highly toxic to human tumor cell lines. The concentrations used in the flow cytometry experiments were chosen in accordance with the MTT results (example 2). Three human cancer cell lines, Hs683, J82, and HCT-15 were tested and doses that killed 30 and 50 percent of the cells were applied to investigate whether uscharin and 2″ oxo-voruscharin promoted an accumulation in one of the cell cycle phases when the cell cultures were treated for 24 or 72 hours with increasing concentrations of the compounds. The IC50 and IC30 values for uscharin and 2″ oxo-voruscharin corresponding to the three tested cell lines are represented in Table E.

[4] = system: Hs683 human cancer cells; assay: as above; type: cell-based; design: key to Effect on cell cycle kinetics, G0/G1 / Effect on cell cycle kinetics, S / Effect on cell cycle kinetics, G2/M: n.s. means no significant; ** means highly significant; *** very highly significant
Procedure: as §2, §3

[5] = system: J82 human cancer cells; assay: as above; type: cell-based; design: key to Effect on cell cycle kinetics, G0/G1 / Effect on cell cycle kinetics, S / Effect on cell cycle kinetics, G2/M: n.s. means no significant; ** means highly significant; *** very highly significant
Procedure: as §2, §3

SMILES: CC1CC2(NC(=O)CS2)C2(O)OC3CC4(CO)C(CCC5C4CCC4(C)C(C6=CC(=O)OC6)CCC54O)CC3OC2O1 (centres unmarked) [Compound B]
- T/C value ([1]; i.p. DMT/4 (20 mg/kg), 5ix6w): 177%
- T/C value ([1]; per os DMT/2 (40 mg/kg), 5dx6w): 132%
- survival periods of MCF-7-TD5 tumor bearing mice ([2]; 60 administrations of 10 mg/kg and 5 mg/kg): not sufficient to significantly increase the survival periods
- MCF-7-TD5 tumor growth ([2]; 60 administrations of 10 mg/kg and 5 mg/kg, five times a week): significantly decreased MCF-7-TD5 tumor growth
- weight of MCF-7-TD5 tumor bearing mice (toxic side effects) ([2]; constant administrations, 10 mg/kg and 5 mg/kg): did not lose any significant weight

SMILES: CC1CC2(NC(=O)CS2)C2(O)OC3CC4(C=O)C(CCC5C4CCC4(C)C(C6=CC(=O)OC6)CCC54O)CC3OC2O1 (centres unmarked) [2″oxo-voruscharin, 2″ oxo-voruscharin]
- Effect on cell cycle kinetics, G0/G1 ([3]; HCT-15, 24 h): n.s.
- Effect on cell cycle kinetics, G2/M ([3]; HCT-15, 24 h): n.s.
- Effect on cell cycle kinetics, S ([3]; HCT-15, 24 h): n.s.
- Effect on cell cycle kinetics, G0/G1 ([3]; HCT-15, 72 h): n.s.
- Effect on cell cycle kinetics, G2/M ([3]; HCT-15, 72 h): n.s.
- Effect on cell cycle kinetics, S ([3]; HCT-15, 72 h): ***
- cell cycle, S-phase ([3]; HCT-15, 72 hours, highest concentration tested (4.3×10^−8 M uscharin, 1.2×10^−8 M 2″oxo-voruscharin)): accumulation in S-phase
- cell cycle, G2/M phase ([4]; Hs683, 8.3×10^−9 M after 24 hours and both concentrations for 72 hours, significant): accumulation in G2/M phase
- Effect on cell cycle kinetics, G0/G1 ([4]; Hs683, 24 h): n.s.
- Effect on cell cycle kinetics, G2/M ([4]; Hs683, 24 h): ***
- Effect on cell cycle kinetics, S ([4]; Hs683, 24 h): n.s.
- Effect on cell cycle kinetics, G0/G1 ([4]; Hs683, 72 h): n.s.
- Effect on cell cycle kinetics, G2/M ([4]; Hs683, 72 h): **
- Effect on cell cycle kinetics, S ([4]; Hs683, 72 h): n.s.
- Effect on cell cycle kinetics, G0/G1 ([5]; J82, 24 h): n.s.
- Effect on cell cycle kinetics, G2/M ([5]; J82, 24 h): n.s.
- Effect on cell cycle kinetics, S ([5]; J82, 24 h): n.s.
- Effect on cell cycle kinetics, G0/G1 ([5]; J82, 72 h): n.s.
- Effect on cell cycle kinetics, G2/M ([5]; J82, 72 h): n.s.
- Effect on cell cycle kinetics, S ([5]; J82, 72 h): **
- cell cycle, S-population ([5]; J82, only after 72 hours of treatment at both concentrations tested): increase of S-population

Source: patent US7981875B2, “2″ oxo-voruscharin and derivatives thereof” (priority 2002, dated 2011)
